Data on seven molecules can be found in US12023319B2, “Carboxylic acid aromatic amides” (priority 2016, dated 2024).

Common to all, as to assay type: cell-based
The test system of assay [1] is Bradykinin B1 agonist-induced secretion of IL-6. As to the kind of experiment: Bradykinin B1 agonist-induced secretion of IL-6 in human IMR-90 cells. The note with it: 30 min compound, then 0.1 μM Lys-[Des-Arg9]Bradykinin and 0.1 μM Sar-[D-Phe8]-des-Arg9-Bradykinin for 5 hours. The text has this:
(§1) 2. Inhibitory Activity on Bradykinin B1 Agonist-Induced Secretion of IL-6 and IL-8 in Human IMR-90 Cells
(§2) The effect of the Compound Examples on secretion of the cytokine IL-6 and IL-8 has been investigated in the human foetal lung fibroblast IMR-90 cell line. Here the induction of the cytokine secretion was induced by the Bradykinin B1 agonists Lys-[Des-Arg9]Bradykinin (CAS 71800-36-7, Tocris Bioscience) and Sar-[D-Phe8]-des-Arg9-Bradykinin (CAS 126959-88-4, Tocris Bioscience) leading to the activation of the Bradykinin B1-driven signalling pathway. The inhibitory activity of the tested Compound Examples on Bradykinin B1 agonist-induced secretion of IL-6 and IL-8 is indicative for the compounds' prominent anti-inflammatory mode of action in kinin driven inflammation.
(§3) IMR-90 cells were cultured in Eagle's Minimum Essential Medium (EMEM) containing 2 mM L-glutamine, 1 g/L glucose, 1.5 g/L NaHCO3, 1 mM sodium pyruvate and non-essential amino acids (ATCC, 30-2003™) supplemented with 10% FBS (Biochrom, S0615) and 50 U/mL Penicillin, 50 μg/mL Streptomycin (PAA, P11-010). The assay was performed in EMEM and a cell density of […] IMR-90 cells/96-well. The Compound Examples have been serial diluted in 100% DMSO and evaluated at 8 different concentrations within the range of 3 nM and 10 μM and a final DMSO concentration of 0.4%. The IMR-90 cells have been incubated with the respective concentration of the compound for 30 min. The enhanced secretion of IL-6 and IL-8 was induced by the stimulation of these cells with 0.1 μM Lys-[Des-Arg9]Bradykinin (Tocris, catalogue no. 3225) and 0.1 μM Sar-[D-Phe8]-des-Arg9-Bradykinin (Tocris, catalogue no. 3230) for 5 hours at 37° C. and 5% CO2. Further, cells have been treated with Lys-[Des-Arg9]Bradykinin and Sar[D-Phe8]-des-Arg9-Bradykinin as neutral control and with 0.1% DMSO as inhibitor control. The amount of IL-6 and IL-8 in the supernatant was determined using the Human ProInflammatory Panel II (4-Plex) (MSD, K15025B) according to manufacturer's instruction. Briefly, supernatants were added onto assay plates and incubated at room temperature for 1-2 h with vigorous shaking at 600 rpm. Detection antibodies were then added onto the supernatants and incubated at room temperature for an additional 1-2 h with vigorous shaking at 600 rpm. Plates were washed three times with phosphate-buffered saline (PBS; 137 mM NaCl, 2.7 mM KC1, 6.5 mM Na2HP04, 1.7 mM KH2P04) containing 0.05% Tween-20 (Bio-Rad, 161-0781) and electrochemiluminescence detected using the MSD Sector Imager 6000 plate reader. The cell viability was measured using the CellTiter-Glo Luminescent Assay (Promega, G7571) following the manufacturers protocol. Briefly, the CellTiter-Glo Reagent was diluted with PBS (1:1) and added directly to cells. After incubation and shaking for 10 minutes luminescent signal was measured which is proportional to the amount of ATP present.
(§4) The effect of the compound on the amount of secreted cytokine has been calculated as 100/(measured cytokine concentration of neutral control-measured cytokine concentration of inhibitor control)*(measured cytokine concentration of compound dose-measured cytokine concentration of inhibitor control). IC50 values are determined using 4-parameter-fit.
(§5) The Compound Examples were tested in triplicates per plate and the inhibitory activity was determined as the relation between neutral and inhibitor control in percent. IC50 values were calculated using the 4-parameter logistic model.

Assay [2] deals with Bradykinin B1 agonist-induced secretion of IL-8. Description: Bradykinin B1 agonist-induced secretion of IL-8 in human IMR-90 cells. The note with it: 30 min compound, then 0.1 μM Lys-[Des-Arg9]Bradykinin and 0.1 μM Sar-[D-Phe8]-des-Arg9-Bradykinin for 5 hours.
From the text: as §1, §2, §3, §4, §5

The target of assay [3] is T1, native human Bradykinin B1 receptor (Homo sapiens, UniProt P46663).
T1 construct: which express native human Bradykinin B1 receptor after induction with human IL-1beta; Coriell Institute; host or cells: IMR-90 human foetal lung fibroblasts, induced with human IL-1beta
T1 sequence (P46663 1-353): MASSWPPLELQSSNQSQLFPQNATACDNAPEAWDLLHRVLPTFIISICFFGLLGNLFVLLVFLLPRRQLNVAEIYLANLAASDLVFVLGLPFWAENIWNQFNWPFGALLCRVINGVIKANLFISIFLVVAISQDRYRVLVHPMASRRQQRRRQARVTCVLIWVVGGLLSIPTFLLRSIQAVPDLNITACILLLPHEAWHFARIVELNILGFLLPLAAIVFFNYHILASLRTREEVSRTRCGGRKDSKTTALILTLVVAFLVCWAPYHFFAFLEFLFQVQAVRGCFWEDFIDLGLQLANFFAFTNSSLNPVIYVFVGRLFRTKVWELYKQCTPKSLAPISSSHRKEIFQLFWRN
Description: Calcium flux assay (FLIPR) with IMR-90 human fibroblasts expressing Bradykinin B1 receptor after IL-1beta induction (hB1 IMR-90). The note with it: IMR-90 human fibroblasts after IL-1beta induction, read-out: hB1 IMR90 IC50. The method, boiled down: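 IMR-90 foetal lung fibroblasts induced with 0.35 ng/mL IL-1beta for 3 h to express native B1 receptor, then loaded with 2.5 μM Fluo-4/AM plus 2.5 mM probenecid for 2 h at 37 °C. Calcium flux read by FLIPR; compounds at 8 concentrations in triplicate, full inhibition defined by 20 μM Lys-(Des-Arg-Leu)-Bradykinin; IC50 derived.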

For orientation: IC50 means the concentration needed to halve the response being measured. With `O=C(O)c1cc(NC(=O)C2(c3ccc(C(F)(F)F)cc3F)CC2)cc(F)c1-c1cnn(C2CCC2)c1` [Example 42, 2-(1-Cyclobutyl-1H-pyrazol-4-yl)-3-fluoro-5-[({1-[2-fluoro-4-(trifluoromethyl)phenyl]cyclopropyl}carbonyl)amino]benzoic acid], the concentration for half-maximal inhibition (IC50) was 70 nM in assay [1], 85 nM in assay [2] and 4.1 nM in assay [3].

For `O=C(O)c1cc(NC(=O)C2(c3ccc(C(F)(F)F)cc3F)CC2)ccc1-c1ccc(C(F)(F)F)nc1` [Example 6, 5-[({1-[2-Fluoro-4-(trifluoromethyl)phenyl]cyclopropyl}carbonyl)amino]-2-[6-(trifluoromethyl)pyridin-3-yl]benzoic acid], the concentration for half-maximal inhibition (IC50) in assay [1] amounted to 443 nM; in assay [2] it was 205 nM; in assay [3], 550 nM.

As for `CCC(F)(F)c1ccc(-c2ccc(NC(=O)C3(c4ccc(C(F)(F)F)cc4F)CC3)cc2C(=O)O)cn1` [Example 2, 2-[6-(1,1-Difluoropropyl)pyridin-3-yl]-5-[({1-[2-fluoro-4-(trifluoromethyl)-phenyl]cyclopropyl}carbonyl)amino]benzoic acid], the values for the IC50 in assay [1], in assay [2] and in assay [3] were 113 nM, 303 nM and 44 nM, respectively.

Take `O=C(O)c1cc(NC(=O)C2(c3ccc(OC(F)(F)F)cc3F)CC2)ccc1-c1ccc(C(F)F)nc1` [Example 5, 2-[6-(Difluoromethyl)pyridin-3-yl]-5-[({1-[2-fluoro-4-(trifluoromethoxy)phenyl]cyclopropyl}carbonyl)amino]benzoic acid]: the IC50 in assay [1] was 290 nM; in assay [2], 483 nM; in assay [3], 2700 nM.

With `O=C(O)c1cc(NC(=O)C2(c3ccc(C(F)(F)F)cc3F)CC2)ccc1-c1cc2ccccc2s1` [Example 1, 2-(1-Benzothiophen-2-yl)-5-[({1-[2-fluoro-4-(trifluoromethyl)phenyl]cyclopropyl}carbonyl)amino]benzoic acid], the IC50 in assay [1] is 149 nM; in assay [2] it was 245 nM; in assay [3] it was 72 nM.

Take `O=C(O)c1cc(NC(=O)C2(c3ccc(C(F)(F)F)cc3F)CC2)ccc1-c1cnn(C2CCC2)c1` [Example 3, 2-(1-Cyclobutyl-1H-pyrazol-4-yl)-5-[({1-[2-fluoro-4-(trifluoromethyl)phenyl]cyclopropyl}carbonyl)amino]benzoic acid]: the values for the 50% inhibitory concentration (IC50) in assay [1], in assay [2] and in assay [3] were 47 nM, 53 nM and 12 nM, respectively.

As to `O=C(O)c1cc(NC(=O)C2(c3ccc(C(F)(F)F)cc3F)CC2)cc(F)c1-c1ccc(C(F)(F)F)nc1` [Example 29, 3-Fluoro-5-[({1-[2-fluoro-4-(trifluoromethyl)phenyl]cyclopropyl}carbonyl)amino]-2-[6-(trifluoromethyl)pyridin-3-yl]benzoic acid], the IC50 turned out to be 600 nM in assay [1], 489 nM in assay [2] and 21 nM in assay [3].
